Values quoted from earlier work in patent publication US9180154B2, “Method of manufacturing magnoliidae compounds” (Arizona Health Consulting Group, LLC, priority 2009, dated 2015).

What was measured:
D2 receptor = biological target: T1, D2 receptor (Rattus norvegicus, UniProt P61169)
T1 construct: from tissue; host or cells: normal rats (in vivo; tissue not specified)

D1 receptors = biological target: T2, D1 receptors (Rattus norvegicus, UniProt P18901); settings: rats with unilateral nigral lesion (DA receptor super sensitivity in striatum)
T2 construct: from tissue; host or cells: rats with unilateral nigral lesion (in vivo; striatum mentioned)

[1] = test system: D1-type and D2-type DA receptor; settings: D1-type versus D2-type DA receptor

T1 sequence (P61169 whole entry): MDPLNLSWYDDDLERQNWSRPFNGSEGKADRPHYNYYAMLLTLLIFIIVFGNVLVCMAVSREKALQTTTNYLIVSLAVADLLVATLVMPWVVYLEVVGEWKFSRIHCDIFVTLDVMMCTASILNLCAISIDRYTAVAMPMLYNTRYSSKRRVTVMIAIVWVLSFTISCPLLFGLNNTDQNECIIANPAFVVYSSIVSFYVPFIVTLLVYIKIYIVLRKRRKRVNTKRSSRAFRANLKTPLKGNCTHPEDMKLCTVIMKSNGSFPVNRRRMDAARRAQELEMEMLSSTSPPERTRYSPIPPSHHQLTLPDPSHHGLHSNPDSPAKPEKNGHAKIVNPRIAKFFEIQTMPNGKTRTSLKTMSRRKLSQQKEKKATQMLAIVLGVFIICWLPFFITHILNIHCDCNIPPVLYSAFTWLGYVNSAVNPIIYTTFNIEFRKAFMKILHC
T2 sequence (P18901 whole entry): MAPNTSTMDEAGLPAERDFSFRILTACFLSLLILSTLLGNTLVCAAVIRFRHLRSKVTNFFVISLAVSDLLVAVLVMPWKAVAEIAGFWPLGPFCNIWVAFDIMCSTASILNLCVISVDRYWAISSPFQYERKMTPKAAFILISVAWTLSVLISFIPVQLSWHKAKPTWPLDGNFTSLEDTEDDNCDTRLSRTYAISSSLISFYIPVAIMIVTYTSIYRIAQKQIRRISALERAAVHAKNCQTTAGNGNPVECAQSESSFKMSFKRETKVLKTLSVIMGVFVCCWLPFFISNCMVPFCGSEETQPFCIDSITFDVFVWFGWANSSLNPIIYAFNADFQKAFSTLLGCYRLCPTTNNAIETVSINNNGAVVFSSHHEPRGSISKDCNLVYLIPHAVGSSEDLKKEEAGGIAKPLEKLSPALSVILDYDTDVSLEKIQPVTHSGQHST

Compound | receptor action in normal rats (D2 receptor) | receptor action in lesioned rats (D1 receptors) | effect on D1-type and D2-type DA receptor binding [1]
COc1cc2c(cc1O)[C@@H]1Cc3ccc(O)c(OC)c3CN1CC2 [l-SPD, l-Stepholidine] | characteristics of D2 receptor antagonist | acts on D1 receptors as an agonist | 
COc1ccc2c(c1OC)CN1CCc3cc4c(cc3C1C2)OCO4 (stereo not drawn) [THB, tetrahydroberberine] |  |  | equipotent
